One series relates to mice. To be noted: mice (males and females), cited from earlier work.
Series [1] concerns blood plasma. Description: Measurement of APTT (activated partial thromboplastin time). The series is classed as biochemical, rat. Particulars: for APTT activity: concentration of standard heparin giving APTT 100 seconds as percentage of that of the substance, standard heparin = 100; for APTT (3 μg/ml): final concentration 3 μg/ml. The protocol:
For the measurement of APTT, blood was collected from rat lower aorta by 3.2% citric acid {fraction (1/10 )} volume and centrifuged at 1,000×g for 10 minutes, and 100 μl of the thus obtained blood plasma and 100 μl of each sample having varied concentration were put into a measuring cup and incubated at 37° C. for 1 minute. Thereafter, 100 μl of Actin (trade name, Yoshitomi Pharmaceutical) which had been incubated in advance at 37° C. was added thereto, and the incubation was continued for 2 minutes. Next, 100 μl of 0.02 M CaCl2 solution which had been incubated in advance at 37° C. was added thereto, and the period of time from this point until generation of coagulation was measured using a blood coagulation automatic measuring apparatus (KC-10A: manufactured by Amelung). Also, in Table 2, the final concentration of each of the inventive substance and standard heparin in the medium, by which the APTT value becomes 100 seconds, was obtained to calculate the concentration of the standard heparin as percentage based on the concentration of the inventive substance, and this value (%) was used as the APTT activity of the inventive substance.

Series [2] concerns primary culture cells of Wistar rat cerebral cortex cells. Description: Measurement of neurite outgrowth promoting activity. In kind it is cell-based. Also on record: neurite outgrowth promoting activity (in words, FIG. 3): dose or concentration left out as unconfirmed. To be noted: for Neurite outgrowth promoting activity: 10 μg/ml, ratio of cerebral cortex cell masses showing neurite outgrowth after 2 days of culturing. As to the method: A fetus was aseptically excised from a Wistar rat in the 17th day of pregnancy (purchased from Japan SLC). The brain was excised from the fetus, and the cerebral cortex was obtained by removing the cerebellum, mid-brain, inter-brain and meninges in an un-sulfated DMEM medium (prepared by dissolving 500 mg of anhydrous CaCl2, 0.25 mg of Fe(NO)3/9H2O, 1,000 mg of KCl, 193.3 mg of MgCl2, 9,250 mg of NaHCO3, 312.5 mg of NaH2PO4/H2O, 37.5 mg of Phenol Red, 275 mg of sodium pyruvate, 100 ml of MEM amino acid (No. 11130-051, manufactured by Gibco), 75 mg of L-glycine, 1,460 mg of L-glutamine, 105 mg of L-serine, 100 ml of MEM vitamin solution (No. 11120-052, manufactured by Gibco), 15,150 mg of NaCl and 11,250 mg of D-glucose in 2.5 L of sterilized distilled water and adjusting the solution to pH 7.2).
Cerebral cortexes obtained from 10 animals were finely sliced 100 times in both lengthwise and crosswise with a safety razor on a 60 mm dish, and the cerebral cortex slices were mixed twice with 10 ml of phosphate-buffered saline (PBS) and dispensed into a 50 ml capacity Falcon tube to which was subsequently added 11 ml of the un-sulfated DMEM medium. While uniformly suspending by gentle shaking, this was dispensed in 0.5 ml portions into wells of a 24 well plate (bottom area, 2 cm^2) which had been coated with 0.1% polyethylene imine. After 2 hours of the commencement of culturing, 100 μl of each sample was taken out, and 50 μl of PBS containing each substance to be tested having 10 time concentration of its final concentration and 50 μl of 400 μM chloric acid/un-sulfated DMEM medium were added. After 2 days of culturing at 37° C. under 5% CO2, 500 μl of 1% glutaraldehyde/PBS was gently over-layered to carry out 20 minutes of fixation at room temperature. After removing the supernatant by suction, 0.5 ml of PBS was slowly over-layered and then immediately removed by suction. A 20% Giemsa solution/potassium phosphate buffer was over-layered and allowed to stand for 2 hours at room temperature. After removing the supernatant by suction, 0.5 ml of PBS was added.

Series [3] can be described thus: Anticoagulation activity of the standard heparin. To be noted: property of the standard heparin preparation.
Series [4] relates to blood plasma. Description: Measurement of TT (thrombin time). In kind it is biochemical, rat. Particulars: for TT activity: concentration of standard heparin giving TT 100 seconds as percentage of that of the substance, standard heparin = 100; for TT activity/APTT activity: ratio of TT activity to APTT activity. The protocol: For the measurement of TT, 100 μl of the blood plasma and 100 μl of each sample having varied concentration were put into a measuring cup and incubated at 37° C. for 1 minute. Thereafter, 100 μl of thrombin (10 U/ml) incubated in advance at 37° C. was added thereto, and the period of time from this point until generation of coagulation was measured using the blood coagulation automatic measuring apparatus. In Table 2, the final concentration of each of the inventive substance and standard heparin in the medium, by which the TT value becomes 100 seconds, was obtained to calculate the concentration of the standard heparin as percentage based on the concentration of the inventive substance, and this value (%) was used as the TT activity of the inventive substance.

A further series deals with NSC-34 cells. Put plainly: Measurement of neural cell death inhibition activity. The series is classed as cell-based, mouse. As to the method: That is, culturing was carried out by adding 0.09 ml of serum-free DMEM medium containing 1×10^5 of NSC-34 cells (received from Dr. Cashman (Toronto University): a mouse motor neuron-derived cultured cell strain) to a 96 well multi-plate which had been treated with 0.1% polyethylene imine in advance. Two hours after culturing, 10 μl of 100, 1,000 or 10,000 μg/ml aqueous solution of the inventive substance was added to respective wells (the final concentration in the medium is 10, 100 or 1,000 μg/ml). Thereafter, culturing was continued for 46 hours, and the number of survived cells was measured by the MTT process using a hemocytometer. By comparing with the number of survived cells after 2 hours of the culturing, the number of dead cells after 48 hours of the culturing of a control in which the inventive substance was not added was defined as 100%, and the ratio of difference from the number of dead cells when the inventive substance was added (the number of cells rescued from the cell death) was calculated as percentage (FIG. 6).

For series [5], the system named is sialidase (homogenate of NSC-34 cells). Put plainly: Measurement of sialidase activity with [3H]GM2 substrate. The series is classed as biochemical, mouse. The protocol: Into a 15 ml capacity glass tube, 1 mg of GM2 ganglioside (manufactured by IATRON) was put, and dissolved by adding 0.8 ml of distilled water, followed by sonication. To the resulting solution, 0.1 ml of PdCl2 solution (a supernatant fraction obtained by adding PdCl2 to distilled water to a concentration of 25 mg/ml, followed by sonication for 30 minutes, and then centrifuging the mixture at 2,000×g) was added, followed by stirring. […]
After the incubation, this was mixed with 5 ml of distilled water, applied to Sep-pak C18 cartridge column (manufactured by Waters) and eluted with methanol (3 ml) and then with chloroform : methanol (1:1 (v/v), 3 ml). The eluate was applied to DEAE-Sephadex A-25 column (manufactured by Pharmacia: 1 ml resin, swelled with methanol) and eluted with chloroform:methanol (1:1 (v/v), 3 ml), and then the eluate was dried to measure and compare radioactivity by a liquid scintillation counter. Radioactivity of a control in which 10 μl of distilled water was added instead of the standard heparin or inventive-substance was defined as 100% (FIG. 7). […]

Like-named read-outs stand apart in the source and are kept apart here.

For the substance heparin, the values for the LD50 entry in the series on mice (intravenous injection), with mice (oral administration) and in the series on mice (subcutaneous or intraperitoneal administration) were “about 1,000 mg/kg”, ≥ 5,000 mg/kg and ≥ 2,500 mg/kg, respectively.
Consider “heparin sodium salt [Standard heparin, reference compound]”, for which, in the series on blood plasma [1], the APTT activity came out at 100% and the “APTT (3 μg/ml)” value turned out to be 248 s. Besides, in series [2], the “Neurite outgrowth promoting activity” value is on record as 15.0%. The substance also gave an anticoagulation activity in series [3] of 160 IU/mg. Besides, in the series with blood plasma [4], the TT activity was found to be 100% and the “TT activity/APTT activity” value is reported as 1.
Turning to “selectively 2-O-desulfated periodic acid oxidation-reduction heparin [Inventive substance]”, in the series with blood plasma [1], the APTT activity was 2% and the “APTT (3 μg/ml)” value is 32 s. Further, in series [2], the “neurite outgrowth promoting activity (in words, FIG. 3)” value is listed as “sharp increase in the neurite outgrowth promoting activity” and the “Neurite outgrowth promoting activity” value is on record as 29.7%. The “cells rescued from cell death” value in the series on NSC-34 cells (100 μg/ml aqueous solution added, NSC-34 cells) is “about half the number of cells is rescued from cell death”. Also, the “activity to inhibit cell death and rescue the cells” value in the series with NSC-34 cells (100 and 1,000 μg/ml aqueous solution added, NSC-34 cells, 48 hours, MTT) is given as “markedly inhibit cell death”. Besides, the “neurite outgrowth promoting activity in the survived cells” value with NSC-34 cells (survived NSC-34 cells) is “neurite outgrowth promoting activity was observed”. In addition, in the series on blood plasma [4], the TT activity is reported as 0.37% and the “TT activity/APTT activity” value is recorded as 0.185. Further, the “sialidase inhibition activity compared with standard heparin” value in series [5] (10 μl of 10 μg/ml aqueous solution, 37° C., 1 hour (FIG. 7)) is “stronger activity to inhibit sialidase which degrades ganglioside than the standard heparin”. Further, the “sialidase inhibition activity compared with NeuAc2en” value in series [5] (10 μl of 10, 100 or 1,000 μg/ml aqueous solution (FIG. 8)) is recorded as “stronger sialidase inhibition activity than that of NeuAc2en”.

These data come from patent publication US6498246B1, “Glycosaminoglycan derivatives and processes for preparing same” (Seikagaku Corporation, priority 1998, dated 2002).
